Assay results taken from patent US20140315972A1, “RS)-2-(2-oxo-4-phenylpyrrolidin-1-yl)acetamide compound having modulatory activity with a commensurate effect, pharmaceutical substance (variants) and its application, composition (variants) thereof” (priority 2011, published 2014).
Marks after values point to notes of the source that are not given here.

Experiments:
mice = assay: Open field test; type: in vivo; conditions: for Distance covered during 1st min (horizontal motor activity) / Distance during 2nd min (horizontal motor activity) / Distance during 3rd min (horizontal motor activity) / Explorations during 2nd min / Explorations during 3rd min / Number of explorations (holes) during 1st min / Number of washings during 1st min / Total distance at 3 min (horizontal motor activity) / Total number of explorations at 3 min / Total number of visits to the center at 3 min / Total number of washings at 3 min / Visits to the center during 1st min / Visits to the center during 2nd min / Visits to the center during 3rd min / Washings during 2nd min / Washings during 3rd min / vertical motor activity, 1st min (Distance covered) / vertical motor activity, 2nd min / vertical motor activity, 3rd min / vertical motor activity, total at 3 min: mice
Method: Study of the effect of Phenotropil (100, 200, 300 mg/kg) on motor activity and exploratory behavior by the open field test on mice (16-24 g) in comparison with olanzapine (1 mg/kg) is shown in Tables 5-5.4. Olanzapine at higher doses has sedative activity, so for comparison with Phenotropil, the drug was used only at a dose of 1 mg/kg. The drugs and distilled water to control groups were injected intraperitoneally 40 minutes prior to the study. […] This indicates the ability of the drug to reversibility, unlike olanzapine.

rats = assay: Ischemic stroke (middle cerebral artery occlusion), McGrow scale; type: in vivo
Description: The stroke condition was simulated in male rats (270-320 g) at a local cerebral hemorrhage, as a hemorrhagic stroke (intracerebral post-traumatic hematoma) by the method of A. N. Makarenko et al (1990) and at cerebral ischemia with distal occlusion of the middle cerebral artery (Chen S. T., Hsu C. Y., Hogan E. L., Maricq H., Balentine J. D. A model of focal ischemic stroke in the rat reproducible extensive cortical infarction//Stroke.—1989, V. 17, No 4, p. 738-743) as an ischemic stroke. Phenotropil was injected intraperitoneally at hemorrhagic stroke at 100 mg/kg immediately after surgery, and one hour before and two hours after the surgery (at doses of 100, 200 and 300 mg/kg) at ischemic stroke. Control animals were treated adequately with distilled water.

[1] = 100 mg/kg i.p. after MCAO, first day
[2] = 100 mg/kg i.p. after MCAO, second day
[3] = 100 mg/kg i.p. after MCAO, third day
[4] = 100 mg/kg i.p. before MCAO, first day
[5] = 100 mg/kg i.p. before MCAO, second day
[6] = 100 mg/kg i.p. before MCAO, third day
[7] = 200 mg/kg i.p. after MCAO, first day
[8] = 200 mg/kg i.p. after MCAO, second day
[9] = 200 mg/kg i.p. after MCAO, third day
[10] = 200 mg/kg i.p. before MCAO, first day
[11] = 200 mg/kg i.p. before MCAO, second day
[12] = 200 mg/kg i.p. before MCAO, third day
[13] = 300 mg/kg i.p. after MCAO, first day
[14] = 300 mg/kg i.p. after MCAO, second day
[15] = 300 mg/kg i.p. after MCAO, third day
[16] = 300 mg/kg i.p. before MCAO, first day
[17] = 300 mg/kg i.p. before MCAO, second day
[18] = 300 mg/kg i.p. before MCAO, third day

NC(=O)CN1CC(c2ccccc2)CC1=O (racemic) [Compound 1, (RS)-2-(2-oxo-4-phenylpyrrolidine-1-yl)acetamide]
increase of horizontal locomotor activity (mice; 100 mg/kg): 112.2%
increase of number of visits to the center vs control (mice; 100 mg/kg): 111%
increase of total exploratory behavior index (mice; 100 mg/kg): 50%
increase of total vertical locomotor activity (mice; 100 mg/kg): 237.5%
reduction of total index of washes vs control (mice; 100 mg/kg): 25%
decrease of total exploratory behavior index (mice; 200 mg/kg): 32%
increase of horizontal locomotor activity (mice; 200 mg/kg): 151.8%
increase of number of visits to the center vs control (mice; 200 mg/kg): 155%
vertical activity over three minutes vs control (mice; 200 mg/kg): −6.3%
increase of horizontal locomotor activity (mice; 300 mg/kg): 99.5%
increase of number of visits to the center vs control (mice; 300 mg/kg): 133%
increase of total index of explored holes (mice; 300 mg/kg): 27%
number of rearings at the first minute vs control (mice; 300 mg/kg): −75%
total number of rearings for 3 minutes vs control (mice; 300 mg/kg): +56%
Distance covered during 1st min (horizontal motor activity) (mice; 100 mg/kg i.p.): 23.7 ± 5*^
Distance during 2nd min (horizontal motor activity) (mice; 100 mg/kg i.p.): 22.5 ± 3.1
Distance during 3rd min (horizontal motor activity) (mice; 100 mg/kg i.p.): 44 ± 10.7
Explorations during 2nd min (mice; 100 mg/kg i.p.): 1.5 ± 0.4
Explorations during 3rd min (mice; 100 mg/kg i.p.): 1.3 ± 0.7
Number of explorations (holes) during 1st min (mice; 100 mg/kg i.p.): 0.5 ± 0.3
Number of washings during 1st min (mice; 100 mg/kg i.p.): 0.2 ± 0.2
Total distance at 3 min (horizontal motor activity) (mice; 100 mg/kg i.p.): 90.2 ± 8.7
Total number of explorations at 3 min (mice; 100 mg/kg i.p.): 3.3 ± 0.9
Total number of visits to the center at 3 min (mice; 100 mg/kg i.p.): 3.9 ± 0.6
Total number of washings at 3 min (mice; 100 mg/kg i.p.): 0.3 ± 0.2^
Visits to the center during 1st min (mice; 100 mg/kg i.p.): 0.7 ± 0.5
Visits to the center during 2nd min (mice; 100 mg/kg i.p.): 2.2 ± 0.8
Visits to the center during 3rd min (mice; 100 mg/kg i.p.): 1 ± 0.5
Washings during 2nd min (mice; 100 mg/kg i.p.): 0.1 ± 0.2^
Washings during 3rd min (mice; 100 mg/kg i.p.): 0 ± 0
vertical motor activity, 1st min (Distance covered) (mice; 100 mg/kg i.p.): 2.3 ± 1.1
vertical motor activity, 2nd min (mice; 100 mg/kg i.p.): 3.8 ± 1.7
vertical motor activity, 3rd min (mice; 100 mg/kg i.p.): 4.7 ± 1.6
vertical motor activity, total at 3 min (mice; 100 mg/kg i.p.): 10.8 ± 4.2
Distance covered during 1st min (horizontal motor activity) (mice; 200 mg/kg i.p.): 31.7 ± 2.8
Distance during 2nd min (horizontal motor activity) (mice; 200 mg/kg i.p.): 41.8 ± 7.0
Distance during 3rd min (horizontal motor activity) (mice; 200 mg/kg i.p.): 33.5 ± 4.7
Explorations during 2nd min (mice; 200 mg/kg i.p.): 0.8 ± 0.5
Explorations during 3rd min (mice; 200 mg/kg i.p.): 0.5 ± 0.5
Number of explorations (holes) during 1st min (mice; 200 mg/kg i.p.): 0.2 ± 0.2
Number of washings during 1st min (mice; 200 mg/kg i.p.): 0 ± 0
Total distance at 3 min (horizontal motor activity) (mice; 200 mg/kg i.p.): 107 ± 11.5
Total number of explorations at 3 min (mice; 200 mg/kg i.p.): 1.5 ± 0.9
Total number of visits to the center at 3 min (mice; 200 mg/kg i.p.): 4.7 ± 0.7
Visits to the center during 1st min (mice; 200 mg/kg i.p.): 0.3 ± 0.2
Visits to the center during 2nd min (mice; 200 mg/kg i.p.): 2.7 ± 0.4
Visits to the center during 3rd min (mice; 200 mg/kg i.p.): 1.7 ± 0.4
Washings during 2nd min (mice; 200 mg/kg i.p.): 0 + 0 *
Washings during 3rd min (mice; 200 mg/kg i.p.): 0 ± 0
vertical motor activity, 1st min (Distance covered) (mice; 200 mg/kg i.p.): 0 ± 0
vertical motor activity, 2nd min (mice; 200 mg/kg i.p.): 1.3 ± 0.7
vertical motor activity, 3rd min (mice; 200 mg/kg i.p.): 1.7 ± 0.7
vertical motor activity, total at 3 min (mice; 200 mg/kg i.p.): 3.0 ± 1.3
Distance covered during 1st min (horizontal motor activity) (mice; 300 mg/kg i.p.): 29.7 ± 12.3
Distance during 2nd min (horizontal motor activity) (mice; 300 mg/kg i.p.): 27.2 ± 10.2
Distance during 3rd min (horizontal motor activity) (mice; 300 mg/kg i.p.): 28 ± 6.4
Explorations during 2nd min (mice; 300 mg/kg i.p.): 1.5 ± 0.8
Explorations during 3rd min (mice; 300 mg/kg i.p.): 1.0 ± 0.8
Number of explorations (holes) during 1st min (mice; 300 mg/kg i.p.): 0.3 ± 0.2
Number of washings during 1st min (mice; 300 mg/kg i.p.): 0.2 ± 0.2
Total distance at 3 min (horizontal motor activity) (mice; 300 mg/kg i.p.): 84.8 ± 28.0
Total number of explorations at 3 min (mice; 300 mg/kg i.p.): 2.8 ± 1.4
Total number of visits to the center at 3 min (mice; 300 mg/kg i.p.): 4.2 ± 0.8
Total number of washings at 3 min (mice; 300 mg/kg i.p.): 0.2 ± 0.2
Visits to the center during 1st min (mice; 300 mg/kg i.p.): 1.2 ± 0.4
Visits to the center during 2nd min (mice; 300 mg/kg i.p.): 1.3 ± 0.5
Visits to the center during 3rd min (mice; 300 mg/kg i.p.): 1.7 ± 0.5
Washings during 2nd min (mice; 300 mg/kg i.p.): 0 ± 0
Washings during 3rd min (mice; 300 mg/kg i.p.): 0 ± 0
vertical motor activity, 1st min (Distance covered) (mice; 300 mg/kg i.p.): 0.3 ± 0.2
vertical motor activity, 2nd min (mice; 300 mg/kg i.p.): 2 ± 1.2
vertical motor activity, 3rd min (mice; 300 mg/kg i.p.): 2.7 ± 1.1
vertical motor activity, total at 3 min (mice; 300 mg/kg i.p.): 5.0 ± 1.8
animals (out of 10) with circling movements (rats; [1]): 0*
animals (out of 10) with lethargy, slowness of functions (rats; [1]): 4*
animals (out of 10) with tremor (rats; [1]): 2*
animals (out of 10) with unilateral hemiptosis (rats; [1]): 4
animals (out of 10) with circling movements (rats; [2]): 0*
animals (out of 10) with lethargy, slowness of functions (rats; [2]): 3*
animals (out of 10) with tremor (rats; [2]): 0*
animals (out of 10) with unilateral hemiptosis (rats; [2]): 5
animals (out of 10) with circling movements (rats; [3]): 0
animals (out of 10) with lethargy, slowness of functions (rats; [3]): 2*
animals (out of 10) with tremor (rats; [3]): 0
animals (out of 10) with unilateral hemiptosis (rats; [3]): 3
animals (out of 10) with circling movements (rats; [4]): 0*
animals (out of 10) with lethargy, slowness of functions (rats; [4]): 2*
animals (out of 10) with tremor (rats; [4]): 2*
animals (out of 10) with unilateral hemiptosis (rats; [4]): 4
animals (out of 10) with circling movements (rats; [5]): 0*
animals (out of 10) with lethargy, slowness of functions (rats; [5]): 1*
animals (out of 10) with tremor (rats; [5]): 0*
animals (out of 10) with unilateral hemiptosis (rats; [5]): 5
animals (out of 10) with circling movements (rats; [6]): 0
animals (out of 10) with lethargy, slowness of functions (rats; [6]): 1*
animals (out of 10) with tremor (rats; [6]): 0
animals (out of 10) with unilateral hemiptosis (rats; [6]): 3
animals (out of 10) with circling movements (rats; [7]): 0*
animals (out of 10) with lethargy, slowness of functions (rats; [7]): 4*
animals (out of 10) with tremor (rats; [7]): 2*
animals (out of 10) with unilateral hemiptosis (rats; [7]): 3
animals (out of 10) with circling movements (rats; [8]): 0*
animals (out of 10) with lethargy, slowness of functions (rats; [8]): 3*
animals (out of 10) with tremor (rats; [8]): 0*
animals (out of 10) with unilateral hemiptosis (rats; [8]): 4
animals (out of 10) with circling movements (rats; [9]): 0
animals (out of 10) with lethargy, slowness of functions (rats; [9]): 1*
animals (out of 10) with tremor (rats; [9]): 0
animals (out of 10) with unilateral hemiptosis (rats; [9]): 3
animals (out of 10) with circling movements (rats; [10]): 0*
animals (out of 10) with lethargy, slowness of functions (rats; [10]): 3*
animals (out of 10) with tremor (rats; [10]): 3*
animals (out of 10) with unilateral hemiptosis (rats; [10]): 4
animals (out of 10) with circling movements (rats; [11]): 0*
animals (out of 10) with lethargy, slowness of functions (rats; [11]): 2*
animals (out of 10) with tremor (rats; [11]): 0*
animals (out of 10) with unilateral hemiptosis (rats; [11]): 4
animals (out of 10) with circling movements (rats; [12]): 0
animals (out of 10) with lethargy, slowness of functions (rats; [12]): 0*
animals (out of 10) with tremor (rats; [12]): 0
animals (out of 10) with unilateral hemiptosis (rats; [12]): 3
animals (out of 10) with circling movements (rats; [13]): 0*
animals (out of 10) with lethargy, slowness of functions (rats; [13]): 4*
animals (out of 10) with tremor (rats; [13]): 3*
animals (out of 10) with unilateral hemiptosis (rats; [13]): 3
animals (out of 10) with circling movements (rats; [14]): 0*
animals (out of 10) with lethargy, slowness of functions (rats; [14]): 2*
animals (out of 10) with tremor (rats; [14]): 0*
animals (out of 10) with unilateral hemiptosis (rats; [14]): 5
animals (out of 10) with circling movements (rats; [15]): 0
animals (out of 10) with lethargy, slowness of functions (rats; [15]): 1*
animals (out of 10) with tremor (rats; [15]): 0
animals (out of 10) with unilateral hemiptosis (rats; [15]): 3
animals (out of 10) with circling movements (rats; [16]): 0*
animals (out of 10) with lethargy, slowness of functions (rats; [16]): 2*
animals (out of 10) with tremor (rats; [16]): 2*
animals (out of 10) with unilateral hemiptosis (rats; [16]): 4
animals (out of 10) with circling movements (rats; [17]): 0*
animals (out of 10) with lethargy, slowness of functions (rats; [17]): 1*
animals (out of 10) with tremor (rats; [17]): 0*
animals (out of 10) with unilateral hemiptosis (rats; [17]): 5
animals (out of 10) with circling movements (rats; [18]): 0
animals (out of 10) with lethargy, slowness of functions (rats; [18]): 0*
animals (out of 10) with tremor (rats; [18]): 0
animals (out of 10) with unilateral hemiptosis (rats; [18]): 3
